# Measurements published in patent US5663186A, “Treatment of atherosclerosis with angiotensin II receptor blocking imidazoles” (Merck & Co., Inc., priority 1995, dated 1997).
# Key:
# [1] = system: patients with mild to moderate hypertension; test: Clinical study: LDL cholesterol; type: in vivo
# Protocol: (§1) The total, HDL, LDL and VLDL cholesterol levels were measured using the procedures described below:
# The low density lipoprotein cholesterol is computed by subtracting from the cholesterol value determined above one-fifth of the triglycerides and the HDL cholesterol value determined above. This LDL computation is valid only if the triglyceride level is less than 400 mg/dL.
# [2] = system: AT1 receptor subtype; conditions: cited from earlier work
# [3] = system: patients with mild to moderate hypertension; test: Clinical study: HDL cholesterol; type: in vivo
# Protocol: as §1
# High Density Lipoprotein Cholesterol
# The high density lipoprotein (HDL) cholesterol was measured by analyzing a 2.0 mL volume of non-hemolyzed serum or EDTA plasma(heparinized plasma is not recommended), which has been separated from the cells within 30 minutes of collection. A fasting specimen of at least 12 hours is required for accurate interpretation. In most persons, the plasma cholesterol level is affected very little by a recent meal. However, in some persons an increase of up to 100 mg/dL may be induced by a recent meal. The level of cholesterol in plasma is slightly lower than serum (approximately 3%) due to the fact that the liquid EDTA dilutes the plasma slightly and it somotically draws water out of the erythrocytes.
# The method used for in this procedure utilizes the precipitating properties of phosphotungstate. Addition of the HDL precipitating reagent lowers the pH of the sample to the isoelectric point for the LDL and VLDL. LDL and VLDL molecules at pH 5.7 have overall electrical neutrality.
# Phosphotungstate then selectively forms insoluble ligand complexes with LDL and VLDL. Differences in ionic strength forcefully precipitate these complexes. Centrifugation removes them, leaving the HDL fraction in the supernatant. The resulting supernatant cholesterol (HDL) is then assayed for cholesterol. Cholesterol esters in the sample are hydrolyzed by cholesterol esterase to cholesterol and free fatty acids. The cholesterol produced in the reaction plus the free cholesterol present in the sample, are oxidized by cholesterol oxidase to form cholesten-3-one and hydrogen peroxide. Peroxidase catalyzes the hydrogen peroxide oxidation and 4-aminoantipyrine (4-AAP) and phenol with subsequent coupling to 3,4-dichlorophenol.
# The end product is a quinoneimine dye which is read at a primary wavelength of 520 nm. The color formation is proportional to the concentration of cholesterol present. This absorbance value is then compared to the absorbance by a known calibrator. The result is then printed out directly in mg/dL.
# [4] = system: Renal Hypertensives Rats; test: Antihypertensive effects in renal hypertensive rats (left renal artery ligation); type: in vivo, rat
# Protocol: This procedure increases blood pressure by increasing renin production with consequent elevation of AII levels. Compounds are administered orally at 100 mg/kg and/or intravenously via a cannula in the jugular vein at 10 mg/kg. Arterial blood pressure is continuously measured directly through a carotid artery cannula and recorded using a pressure transducer and a polygraph. Blood pressure levels after treatment are compared to pretreatment levels to determine the antihypertensive effects of the compounds (See Table 1).
# Compound listed in Table 2 was tested in the same manner as described for Table 1, except that in the test for antihypertensive effects in renal hypertensive rats, the compounds were administered orally at 30 mg/kg and intravenously at 3 mg/kg.
# [5] = system: patients with mild to moderate hypertension; test: Clinical study: triglycerides; type: in vivo
# Protocol: (§2) After six weeks the non-responders were titrated to a 100 mg oral dose administered once daily.
# [6] = system: patients with mild to moderate hypertension; test: Clinical study: plasma renin activity; type: in vivo
# Protocol: as §2
# [7] = system: patients with mild to moderate hypertension; test: Clinical study: sitting diastolic blood pressure; type: in vivo; conditions: for Peak Sitting Diastolic Blood Pressure, Mean (on treatment) / Mean Change in Peak Sitting Diastolic Blood Pressure / Change in Peak Sitting Diastolic Blood Pressure, adj. mean: peak (6 hours postdose); for Trough Sitting Diastolic Blood Pressure, Mean (on treatment) / Mean Change in Trough Sitting Diastolic Blood Pressure / Change in Trough Sitting Diastolic Blood Pressure, adj. mean: trough (24 hours postdose)
# Protocol: Sitting Diastolic Blood Pressure Results At Week 6 and 12
# The changes from baseline blood pressure (primary=trough sitting diastolic blod pressure at weeks 6 and 12) were evaluated using a least squares analysis of the means based upon an analysis of covariance (covariate=baseline blood pressure)for a randomized block (block=investigator site) design. An "all-patients-treated" and a "per-protocol" analysis were performed. The study was designed to detect a 5 mmHg difference in mean change between treatments with 95% probability based upon a group size of 86 with an α of 0.05 (two-sided) and a standard deviation of 9 mmHg.
smiles,measurement,setting,value
"CCCCc1nc(Cl)c(CO)n1Cc1ccc(-c2ccccc2-c2nnn[nH]2)cc1.[K] [Losartan, 2-n-butyl-4-chloro-1-[(2'-(tetrazol-5-yl)-1,1'-biphenyl-4-yl)-methyl]-1H-imidazole-5-methanol potassium salt]","LDL CHOLESTEROL, TREATMENT MEAN","[1]; LOS 50, week 12, N 102",123.5 mg/dL
same,"LDL CHOLESTEROL, CHANGE MEAN","[1]; LOS 50, week 12, N 102, change from baseline 127.7",-4.2 mg/dL
same,"LDL CHOLESTEROL, TREATMENT MEAN","[1]; LOS 50/100, week 12, N 95",117.9 mg/dL
same,"LDL CHOLESTEROL, CHANGE MEAN","[1]; LOS 50/100, week 12, N 95, change from baseline 126.3",-8.4 mg/dL
same,"AII antagonism, oral activity",[2],orally active A II antagonists
same,"HDL CHOLESTEROL, TREATMENT MEAN","[3]; LOS 50, week 12, N 107",52.1 mg/dL
same,"HDL CHOLESTEROL, CHANGE MEAN","[3]; LOS 50, week 12, N 107, change from baseline 52.5",-0.4 mg/dL
same,"HDL CHOLESTEROL, TREATMENT MEAN","[3]; LOS 50/100, week 12, N 106",52.3 mg/dL
same,"HDL CHOLESTEROL, CHANGE MEAN","[3]; LOS 50/100, week 12, N 106, change from baseline 52.9",-0.5 mg/dL
same,"Antihypertensive Effects in Renal Hypertensives Rats, Intravenous Activity","[4]; intravenous, 10 mg/kg or less",+ (Significant decrease in blood pressure at 10 mg/kg or less)
same,"Antihypertensive Effects in Renal Hypertensives Rats, Oral Activity","[4]; oral, 100 mg/kg or less",+ (Significant decrease in blood pressure at 100 mg/kg or less)
same,"TRIGLYCERIDES, TREATMENT MEAN","[5]; LOS 50, week 12, N 107",173.1 mg/dL
same,"TRIGLYCERIDES, CHANGE MEAN","[5]; LOS 50, week 12, N 107, change from baseline 170.4",2.7 mg/dL
same,"TRIGLYCERIDES, TREATMENT MEAN","[5]; LOS 50/100, week 12, N 106",187.8 mg/dL
same,"TRIGLYCERIDES, CHANGE MEAN","[5]; LOS 50/100, week 12, N 106, change from baseline 174.4",13.4 mg/dL
same,"PLASMA RENIN ACTIVITY, TREATMENT MEAN","[6]; LOS 50, week 12, N 99",2.889 ng/mL/h
same,"PLASMA RENIN ACTIVITY, CHANGE MEAN","[6]; LOS 50, week 12, N 99, change from baseline 1.300",1.589 ng/mL/h
same,"PLASMA RENIN ACTIVITY, TREATMENT MEAN","[6]; LOS 50/100, week 12, N 96",3.724 ng/mL/h
same,"PLASMA RENIN ACTIVITY, CHANGE MEAN","[6]; LOS 50/100, week 12, N 96, change from baseline 1.473",2.251 ng/mL/h
same,"Category I: Trough SDBP <90 mmHg, number of patients","[7]; 6 wk, 50 mg, of 125",37
same,"Category I: Trough SDBP <90 mmHg, percent of patients","[7]; 6 wk, 50 mg, of 125",29.6%
same,"Category II: Trough SDBP ≥90 mmHg, number of patients","[7]; 6 wk, 50 mg, of 125",20
same,"Category II: Trough SDBP ≥90 mmHg, percent of patients","[7]; 6 wk, 50 mg, of 125",16.0%
same,"Category III: Neither Category I or II, number of patients","[7]; 6 wk, 50 mg, of 125",68
same,"Category III: Neither Category I or II, percent of patients","[7]; 6 wk, 50 mg, of 125",54.4%
same,"Category I: Trough SDBP <90 mmHg, number of patients","[7]; 6 wk, 50/100 mg, of 118",37
same,"Category I: Trough SDBP <90 mmHg, percent of patients","[7]; 6 wk, 50/100 mg, of 118",31.3%
same,"Category II: Trough SDBP ≥90 mmHg, number of patients","[7]; 6 wk, 50/100 mg, of 118",21
same,"Category II: Trough SDBP ≥90 mmHg, percent of patients","[7]; 6 wk, 50/100 mg, of 118",17.7%
same,"Category III: Neither Category I or II, number of patients","[7]; 6 wk, 50/100 mg, of 118",60
same,"Category III: Neither Category I or II, percent of patients","[7]; 6 wk, 50/100 mg, of 118",50.8%
same,"Category I: Trough SDBP <90 mmHg, number of patients","[7]; 12 wk, 50 mg, of 125",40
same,"Category I: Trough SDBP <90 mmHg, percent of patients","[7]; 12 wk, 50 mg, of 125",32.0%
same,"Category II: Trough SDBP ≥90 mmHg, number of patients","[7]; 12 wk, 50 mg, of 125",18
same,"Category II: Trough SDBP ≥90 mmHg, percent of patients","[7]; 12 wk, 50 mg, of 125",14.4%
same,"Category III: Neither Category I or II, number of patients","[7]; 12 wk, 50 mg, of 125",67
same,"Category III: Neither Category I or II, percent of patients","[7]; 12 wk, 50 mg, of 125",53.6%
same,"Category I: Trough SDBP <90 mmHg, number of patients","[7]; 12 wk, 50/100 mg, of 118",37
same,"Category I: Trough SDBP <90 mmHg, percent of patients","[7]; 12 wk, 50/100 mg, of 118",31.3%
same,"Category II: Trough SDBP ≥90 mmHg, number of patients","[7]; 12 wk, 50/100 mg, of 118",24
same,"Category II: Trough SDBP ≥90 mmHg, percent of patients","[7]; 12 wk, 50/100 mg, of 118",20.3%
same,"Category III: Neither Category I or II, number of patients","[7]; 12 wk, 50/100 mg, of 118",57
same,"Category III: Neither Category I or II, percent of patients","[7]; 12 wk, 50/100 mg, of 118",48.3%
same,"Peak Sitting Diastolic Blood Pressure, Mean (on treatment)","[7]; 6 wk, 50 mg, N 118, all-patients-treated",90.2 mmHg
same,Mean Change in Peak Sitting Diastolic Blood Pressure,"[7]; 6 wk, 50 mg, N 118, baseline 99.9",-9.7 mmHg
same,"Change in Peak Sitting Diastolic Blood Pressure, adj. mean","[7]; 6 wk, 50 mg, N 118, least squares",-9.7 mmHg
same,"Peak Sitting Diastolic Blood Pressure, Mean (on treatment)","[7]; 6 wk, 50/100 mg, N 111, all-patients-treated",90.3 mmHg
same,Mean Change in Peak Sitting Diastolic Blood Pressure,"[7]; 6 wk, 50/100 mg, N 111, baseline 99.1",-8.9 mmHg
same,"Change in Peak Sitting Diastolic Blood Pressure, adj. mean","[7]; 6 wk, 50/100 mg, N 111, least squares",-9.0 mmHg
same,"Peak Sitting Diastolic Blood Pressure, Mean (on treatment)","[7]; 12 wk, 50 mg, N 121, all-patients-treated",90.3 mmHg
same,Mean Change in Peak Sitting Diastolic Blood Pressure,"[7]; 12 wk, 50 mg, N 121, baseline 99.8",-9.5 mmHg
same,"Change in Peak Sitting Diastolic Blood Pressure, adj. mean","[7]; 12 wk, 50 mg, N 121, least squares",-9.3 mmHg
same,"Peak Sitting Diastolic Blood Pressure, Mean (on treatment)","[7]; 12 wk, 50/100 mg, N 113, all-patients-treated",89.1 mmHg
same,Mean Change in Peak Sitting Diastolic Blood Pressure,"[7]; 12 wk, 50/100 mg, N 113, baseline 99.2",-10.1 mmHg
same,"Change in Peak Sitting Diastolic Blood Pressure, adj. mean","[7]; 12 wk, 50/100 mg, N 113, least squares",-10.1 mmHg
same,"Trough Sitting Diastolic Blood Pressure, Mean (on treatment)","[7]; 6 wk, 50 mg, N 125, all-patients-treated",95.3 mmHg
same,Mean Change in Trough Sitting Diastolic Blood Pressure,"[7]; 6 wk, 50 mg, N 125, baseline 102.1",-6.9 mmHg
same,"Change in Trough Sitting Diastolic Blood Pressure, adj. mean","[7]; 6 wk, 50 mg, N 125, least squares",-6.9 mmHg
same,"Trough Sitting Diastolic Blood Pressure, Mean (on treatment)","[7]; 6 wk, 50/100 mg, N 118, all-patients-treated",94.3 mmHg
same,Mean Change in Trough Sitting Diastolic Blood Pressure,"[7]; 6 wk, 50/100 mg, N 118, baseline 102.2",-7.9 mmHg
same,"Change in Trough Sitting Diastolic Blood Pressure, adj. mean","[7]; 6 wk, 50/100 mg, N 118, least squares",-7.9 mmHg
same,"Trough Sitting Diastolic Blood Pressure, Mean (on treatment)","[7]; 12 wk, 50 mg, N 125, all-patients-treated",94.2 mmHg
same,Mean Change in Trough Sitting Diastolic Blood Pressure,"[7]; 12 wk, 50 mg, N 125, baseline 102.1",-7.9 mmHg
same,"Change in Trough Sitting Diastolic Blood Pressure, adj. mean","[7]; 12 wk, 50 mg, N 125, least squares",-7.9 mmHg
same,"Trough Sitting Diastolic Blood Pressure, Mean (on treatment)","[7]; 12 wk, 50/100 mg, N 118, all-patients-treated",93.6 mmHg
same,Mean Change in Trough Sitting Diastolic Blood Pressure,"[7]; 12 wk, 50/100 mg, N 118, baseline 102.2",-8.6 mmHg
same,"Change in Trough Sitting Diastolic Blood Pressure, adj. mean","[7]; 12 wk, 50/100 mg, N 118, least squares",-8.6 mmHg
